Common to all, as to assay: growth of human tumour cells (NCI), 48 h
Experiment [1] deals with ACHN.
In experiment [2] the test system is BT-549.
Experiment [3] has as its system CAKI-1.
In experiment [4] the test system is HL-60.
Experiment [5] concerns Hs-578T.
Experiment [6] relates to K562.
Experiment [7] has as its system LOX IMVI.
The subject of experiment [8] is MDA-MB-231.
The test system of experiment [9] is Malme-3M.
Experiment [10] concerns NCI/ADR-RES.
Experiment [11] concerns PC-3.
The test system of experiment [12] is RPMI-8226.
Experiment [13] concerns SF-268.
Experiment [14] has as its system SF-539.
In experiment [15] the test system is SK-MEL-2.
The subject of experiment [16] is SK-MEL-5.
Experiment [17] relates to SN12C.
In experiment [18] the test system is SNB-19.
Experiment [19] deals with SW-620.
Experiment [20] deals with HOP-92.

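Each compound was tested at five concentrations against cells in 96-well plates for 48 hours. GI50 = concentration required for 50% inhibition of growth.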 The source made the active and inactive calls. No stated cut-off is given here; in the data, active = GI50 up to about 1.1 µM and inactive = higher.

On to `CCCC(C)NC(=O)c1ccc(N(C)Cc2cnc3nc(N)nc(N)c3n2)cc1` (stereo not given), for which the GI50 is 35.2 µM (inactive) in [1]; 15.5 µM (inactive) in experiment [2]; 34 µM (inactive) in experiment [3]; 16.4 µM (inactive) in experiment [4]; 16.2 µM (inactive) in [5]; 8 µM (inactive) in experiment [6]. Further, the GI50 is 5.42 µM (inactive) in experiment [7]; 27.5 µM (inactive) in experiment [8]; 16.9 µM (inactive) in experiment [9]; > 100 µM (inactive) in experiment [10]; 9.84 µM (inactive) in [11]; 91 µM (inactive) in experiment [12]. Besides, the GI50 in [13] was 12 µM (inactive); in [14] it was 11 µM (inactive); in experiment [15], 21.8 µM (inactive); in experiment [16], 10.1 µM (inactive); in experiment [17], 44.6 µM (inactive); in [18], 22.6 µM (inactive). For the same compound, the GI50 in experiment [19] is 28.4 µM (inactive).
For the compound `C=CCn1c(S)nnc1C12CC3CC(CC(C3)C1)C2`, the GI50 was 54.3 µM (inactive) in experiment [1]; 50.6 µM (inactive) in experiment [2]; 17.2 µM (inactive) in experiment [4]; > 100 µM (inactive) in experiment [5]; 25.4 µM (inactive) in experiment [6]; 86.5 µM (inactive) in experiment [7]. For the same compound, the GI50 in experiment [8] was > 100 µM (inactive); in experiment [9], > 100 µM (inactive); in experiment [10] it was 55.1 µM (inactive); in [11] it was 32.7 µM (inactive); in experiment [12] it was 36.7 µM (inactive); in [13], > 100 µM (inactive). The GI50 in experiment [14] was > 100 µM (inactive); in experiment [15] it was 67.8 µM (inactive); in experiment [17], > 100 µM (inactive); in experiment [18] it was > 100 µM (inactive); in experiment [19] it was > 100 µM (inactive).
Take `CN(C(=O)C12C3(C(=O)O)C4C5(C(=O)O)C3C1(C(=O)O)C5C42C(=O)O)C(C)(C)C` (stereo not given): the GI50 in [1], in experiment [2], in experiment [3], in experiment [4], in experiment [20] and in experiment [5] was > 100 µM (inactive) each time. In addition, the GI50 in experiment [6], in experiment [7], in experiment [8], in [10], in [11] and in experiment [13] was > 100 µM (inactive) each time. Also, the GI50 in experiment [14], in [15], in [16], in experiment [17], in [18] and in experiment [19] was > 100 µM (inactive) in each case.
Turning to `Cc1ccc2c(c1)nc(N)n[n+]2[O-]`, the GI50 in experiment [1], in [2], in experiment [3], in [4], in experiment [5] and in [6] was > 100 µM (inactive) in each case. The GI50 in experiment [7], in [8], in experiment [10], in experiment [11], in [12] and in [13] was > 100 µM (inactive) throughout. In addition, the GI50 in [14], in experiment [15], in experiment [16], in [17], in [18] and in [19] was > 100 µM (inactive) in each case.
As for `O=[N+]([O-])/C(C(Cl)=C(Cl)Cl)=C(\Nc1cccc2cccnc12)SCc1ccccc1`, the GI50 was 23.3 µM (inactive) in experiment [1]; 16.9 µM (inactive) in experiment [2]; 20.7 µM (inactive) in experiment [3]; < 0.01 µM (active) in experiment [5]; 13.4 µM (inactive) in experiment [6]; 27.3 µM (inactive) in experiment [8]. In addition, the GI50 in [9] is 15.3 µM (inactive); in experiment [10], 21.2 µM (inactive); in experiment [11] it was 14.8 µM (inactive); in experiment [12], 22.3 µM (inactive); in experiment [13], 17.3 µM (inactive); in experiment [14], 16.9 µM (inactive). The GI50 in experiment [15] is 12.6 µM (inactive); in experiment [17], 25.3 µM (inactive); in experiment [18], 16.7 µM (inactive); in [19], 18.4 µM (inactive).
Consider `CN(C)CCNc1nc(-c2ccc3ccccc3c2)nc2[nH]cnc12`, for which the GI50 in experiment [1] is 2.73 µM (inactive); in experiment [2], 11.2 µM (inactive); in experiment [3], 4.89 µM (inactive); in experiment [4] it was 3.93 µM (inactive); in experiment [5] it was 5.18 µM (inactive); in [6] it was 21.1 µM (inactive). Also, the GI50 in experiment [7] was 4.55 µM (inactive); in experiment [8], 11.2 µM (inactive); in experiment [9], 4.51 µM (inactive); in experiment [10] it was 7.33 µM (inactive); in experiment [11] it was 4.76 µM (inactive); in experiment [12] it was 22.2 µM (inactive). For the same compound, the GI50 is 8.22 µM (inactive) in [13]; 14.6 µM (inactive) in experiment [15]; 10.7 µM (inactive) in experiment [16]; 11.1 µM (inactive) in experiment [17]; 14 µM (inactive) in [18]; 11.4 µM (inactive) in [19].
With `COC(O)C(=O)c1c2c(cc3c1CCC3)CCC2` (stereo not given), the GI50 in [1] is > 100 µM (inactive); in [2], > 100 µM (inactive); in [3] it was > 100 µM (inactive); in experiment [4], 22.6 µM (inactive); in experiment [5] it was > 100 µM (inactive); in experiment [6], 80.9 µM (inactive). The GI50 in [7] is > 100 µM (inactive); in experiment [8] it was > 100 µM (inactive); in [9], > 100 µM (inactive); in [10], > 100 µM (inactive); in experiment [11], > 100 µM (inactive); in experiment [12], 55.1 µM (inactive). The GI50 in [13], in [14], in experiment [15], in [16], in experiment [17] and in [18] was > 100 µM (inactive) each time. The GI50 in experiment [19] is > 100 µM (inactive).
Turning to `O=C(Oc1c(I)ccccc1=O)c1ccc([N+](=O)[O-])cc1`, the GI50 was 24.8 µM (inactive) in experiment [1]; 18.6 µM (inactive) in experiment [2]; 24.4 µM (inactive) in [3]; 18.2 µM (inactive) in experiment [4]; 24.8 µM (inactive) in experiment [5]; 24.2 µM (inactive) in experiment [6]. For the same compound, the GI50 in [7] was 19.6 µM (inactive); in [8], 23.3 µM (inactive); in experiment [9], 14.6 µM (inactive); in [10] it was 40.6 µM (inactive); in experiment [11] it was 27.4 µM (inactive); in [12], 23.2 µM (inactive). The GI50 is 15.5 µM (inactive) in experiment [13]; 17.9 µM (inactive) in [14]; 20.5 µM (inactive) in [15]; 0.51 µM (active) in experiment [16]; 20.4 µM (inactive) in [17]; 20.4 µM (inactive) in [18]. In addition, the GI50 in [19] is 30.1 µM (inactive).
For `O=C(C[N+]12CN3CN(CN(C3)C1)C2)c1ccc(-c2ccccc2)cc1`, the GI50 is 21.4 µM (inactive) in experiment [1]; 29.9 µM (inactive) in [2]; 43.9 µM (inactive) in experiment [3]; 33.5 µM (inactive) in experiment [20]; 32.7 µM (inactive) in experiment [5]; 15 µM (inactive) in [6]. Moreover, the GI50 in experiment [7] was 15.3 µM (inactive); in experiment [8] it was 16.2 µM (inactive); in experiment [9], 21.3 µM (inactive); in experiment [10], 33.4 µM (inactive); in [11] it was 16 µM (inactive); in experiment [13], 19.4 µM (inactive). Besides, the GI50 in [15] is 18.3 µM (inactive); in experiment [16], 16.4 µM (inactive); in [17], 19.7 µM (inactive); in experiment [18], 22.6 µM (inactive); in [19], 8.67 µM (inactive).
Take `CO[C@]12C#CC=CC#C[C@@H](O)[C@]3(CCC1)O[C@@]23c1cccc(O)c1`: the GI50 was > 100 µM (inactive) in experiment [1]; > 100 µM (inactive) in experiment [2]; > 100 µM (inactive) in experiment [3]; > 100 µM (inactive) in experiment [5]; 97.3 µM (inactive) in experiment [6]; > 100 µM (inactive) in [7]. Further, the GI50 in [8], in experiment [10], in [11], in experiment [12], in experiment [13] and in experiment [15] was > 100 µM (inactive) each time. In addition, the GI50 was > 100 µM (inactive) in experiment [17], 51.3 µM (inactive) in [18] and > 100 µM (inactive) in [19].
For `CC(N/N=C(\S)N1CCCCCC1)c1cccnn1` (stereo not given), the GI50 in [1] was 0.294 µM (active); in [2], 0.392 µM (active); in experiment [3], 0.395 µM (active); in experiment [4], 0.114 µM (active); in experiment [5], 13.2 µM (inactive); in experiment [6] it was 0.2 µM (active). The GI50 is 0.304 µM (active) in [7]; 0.553 µM (active) in experiment [8]; 0.192 µM (active) in experiment [9]; 0.409 µM (active) in experiment [10]; 0.104 µM (active) in experiment [11]; 0.155 µM (active) in experiment [12]. The GI50 in experiment [13] is 0.337 µM (active); in experiment [14] it was 0.194 µM (active); in [15], 1.27 µM (inactive); in experiment [16], 0.248 µM (active); in [17], 0.484 µM (active); in experiment [18], 0.381 µM (active). In addition, the GI50 in [19] is 0.147 µM (active).

The values are drawn from ChEMBL document CHEMBL1201862, “PubChem BioAssay data set” (2004).
